Test results published in patent publication US8664209B2, “Daptomycin for multiple sclerosis” (priority 2009, dated 2014).
Where two headings read alike, the source gives them in different places.

Key:
Type in all cases: in vivo, human
[1] = tested on: patients with progressive and relapsing forms of multiple sclerosis
Protocol: Seventeen patients with relapsing remitting (4 patients) and chronic progressive multiple sclerosis […] have received daptomycin therapy at 4 mg/kg IV for periods ranging from five to 21 days. This patient group included Patient A and Patient B from the above examples.
Four out of seventeen patients have received daptomycin for acute relapses, after not responding to, or wishing to be taken of, solumedrol therapy.
Thirteen patients with chronic progressive multiple sclerosis received daptomycin therapy for symptoms of multiple sclerosis that were progressing, or to improve present symptoms. […] In all chronic progressive patients who report responses to the drug, maintenance doses starting with once a week with or without the addition of intravenous corticosteroids are given. Doses of daptomycin 2 mg/kg are given to patients who report fatigue as a significant side effect.
Overall, in the same study, daptomycin was administered to a total of 30 patients. 14 responded to treatment (47%).
Daptomycin was administered as a daily IV infusion at 3 mg/kg, 4 mg/kg or 6 mg/kg as per standard guidelines for 5 to 21 days, then as a maintenance dose of 3 mg/kg, 4 mg/kg or 6 mg/kg once every one to four weeks. Patients were monitored by telephone calls. CPK levels were done as clinically indicated. Patients were selected on the basis of failure or intolerance on other treatments and continued disease activity.

[2] = tested on: person with secondary progressive multiple sclerosis (SPMS); assay: Patient A case: daptomycin given for MRSA infection (Examples 1, 3); settings: for muscle and nerve pain, muscle stiffness: patient-reported
From the text: The novel use of daptomycin in the treatment and/or prevention of multiple sclerosis in mammals, particularly human, is based on the recent observation of a patient (Patient A) with multiple sclerosis whose progressive neurological disability stabilized after treatment with daptomycin for skin infections caused by methicillin resistant Staphalococcus aureus. Previously, their neurological disability had progressed despite treatment with standard FDA approved therapies as well as investigational therapies, some of which they developed severe allergic reactions to. […] More detail about Patient A is provided in Example 3. Patient A is a person who has suffered from multiple sclerosis. Their disease started with left arm and leg weakness. During the early course of the disease, they experienced frequent relapses. Progressive relapsing continued, with increasing lower extremity weakness. The patient characterized their left arm as feeling like dead weight. Patient A developed diverticulitis in 2006. Their EDSS (Expanded Disability Status Scale) was 5.5 in February, 2007, i.e., patient was able to walk 100 meters without aid or rest; their EDSS was 6.0 by the end of the year, i.e., patient required intermittent or constant assistance with a cane, crutch or brace to walk 100 meters. Daptomycin therapy was initiated to treat a MRSA infection after Patient A had knee surgery. They received a daptomycin dose of 100 mg for four weeks. Three months later, they had re-treatment with 500 mg daily for about four weeks.

[3] = tested on: person with multiple sclerosis with almost weekly relapses; assay: Patient B case: daptomycin for relapses (Example 2); settings: for ambulation: acute relapse (nonambulatory)
From the text: This is described in more detail in Example 2. Patient B is a person who was first diagnosed with multiple sclerosis in 1981. The course of their illness was characterized through the years by increasingly frequent relapses and progressive disability. They had initially been treated with azathioprine and, subsequently with interferons, including Betaseron™ and Avonex®, and Copaxone®. As adjunct treatments, they received innumerable courses of intravenous methylprednisolone, as well as cyclophosphamide, since 2005. In addition, they have also received mycophenylate mofetil, plasma exchange monthly, intravenous immunoglobulin monthly, natalizumab, daclizumab and rituximab. None of these regimens adequately controlled their many relapses, which were characterized by worsening gait and appendicular ataxia, weakness in their limbs, vertigo and diplopia and severe migraine headaches. In late 2008 and 2009, they were hospitalized seven times for relapses. Since 2005, they had received more than 50 courses of steroid and/or cyclophosphamide treatments for relapses not requiring hospitalization. These treatments would induce partial and short lasting remissions. During 2009, they were having relapses on a weekly basis. During remissions, they were able to walk only with a walker. Daptomycin 4 mg/kg intravenously [hereinafter “IV”] was administered to patient B for five days for an acute relapse which made the patient nonambulatory. […] They did have an allergic reaction with chest tightness and blistering at the injection site that was determined to be caused by the tape securing their IV catheter. […] Daptomycin 4 mg/kg/IV was administered for five additional days with pretreatment with solumedrol in the total amount of 100 mg IV and diphenhydramine in the total amount of 50 mg IV with improvement. Daptomycin was then ordered 4 mg/kg/IV once a week. Three days after their first weekly dose, they began to feel more off balanced and their headache became more severe. Daptomycin orders were revised to 4 mg/kg IV once a week in co-administration with solumedrol 1 gram IV.

[4] = RPMS (relapsing progressive MS)
[5] = patient thirteen, SPMS, DD 4 yrs, EDSS pretx 4, 4 mg/kg/d × five days (relapse), status D (discontinued)
[6] = secondary progressive MS (SPMS)
[7] = Patient A, listed as daptomycin

creatine phosphokinase level (CPK) ([1]; human, in vivo): 217
Structure (SMILES): CCCCCCCCCC(=O)N[C@@H](Cc1c[nH]c2ccccc12)C(=O)N[C@H](CC(N)=O)C(=O)N[C@@H](CC(=O)O)C(=O)N[C@@H]1C(=O)NCC(=O)N[C@@H](CCCN)C(=O)N[C@@H](CC(=O)O)C(=O)N[C@H](C)C(=O)N[C@@H](CC(=O)O)C(=O)NCC(=O)N[C@H](CO)C(=O)N[C@@H]([C@H](C)CC(=O)O)C(=O)N[C@@H](CC(=O)c2ccccc2N)C(=O)O[C@@H]1C [Daptomycin, N-decanoyl-L-trypotophyl-D-asparaginyl-L-aspartyl-L-threonylglycyl-L-ornithyl-L-aspartyl-D-alanyl-L-aspartylglycyl-D-seryl-threo-3-methyl-L-glutamyl-3-anthraniloyl-L-alanine ε1-lactone]
subgroup response [1, 4]: 0%
subgroup response (responders/treated) [1, 4]: 0/2
patient-reported strength and sensation ([1]; four out of seventeen patients given daptomycin for acute relapses, 4 mg/kg IV): Three patients reported improvement in their strength and sensation
hospitalizations ([1]; human, in vivo): Two patients were hospitalized for confusion and increased symptoms
most common side effect during the course of therapy ([1]; human, in vivo): fatigue
fatigue associated with therapy ([1]; human, in vivo, iv, 4 mg/kg): Three patients noted that daptomycin therapy was associated with significant fatigue
EDSS (last) ([1]; patient eight, SPMS, DD 12 yrs, EDSS pretx 7, 4 mg/kg × one dose, status D (discontinued)): 7
EDSS (last) ([1]; patient eighteen, SPMS, DD 5 yrs, EDSS pretx 6, 4 mg/kg × 5 days, then 4 mg/kg q week, status D (discontinued)): 6
EDSS (last) ([1]; patient eleven, SPMS, DD 24 yrs, EDSS pretx 6.5, 4 mg/kg/day × 14 days (relapse), status D (discontinued)): 6.5
EDSS (last) ([1]; patient fifteen, SPMS, DD 25 yrs, EDSS pretx 6.5, 4 mg/kg/d × 5 days (two courses), 4 mg/kg/week, status A (active)): 6.5
EDSS (last) ([1]; patient five, RRMS, DD 7 yrs, EDSS pretx 2.5, 4 mg/kg/day × 5 days, status D (discontinued)): 2.5
EDSS (last) ([1]; patient four, RRMS, DD 15 yrs, EDSS pretx 2.5, 4 mg/kg/d × 14 days, then 4 mg/kg/q 1-2 wks, status D (discontinued)): 2
EDSS (last) ([1]; patient fourteen, SPMS, DD 9 yrs, EDSS pretx 6, 4 mg/kg × 5 days, then 4 mg/kg q 2 wks, status A (active)): 6
EDSS (last) ([1]; patient nine, SPMS, DD 13 yrs, EDSS pretx 6.5, 4 mg/kg/d × 5 days, 4 mg/kg q 2 wks, status A (active)): 6.5
EDSS (last) ([1]; patient nineteen, SPMS, DD 21 yrs, EDSS pretx 6.5, 4 mg/kg × 21 days. D/Ced p 2½ wks, status D (discontinued)): 6.5
EDSS (last) ([1]; patient one, TMS, DD 12 yrs, EDSS pretx 6, 4 mg/kg × 21 days, status D (discontinued)): 6
EDSS (last) ([1]; patient seven, RRMS, DD 6 yrs, EDSS pretx 3.5, 4 mg/kg/d × 14 days, status D (discontinued)): 3.5
EDSS (last) ([1]; patient seventeen, RRMS, DD 7 yrs, EDSS pretx 0, 4 mg/kg/d × 3 days, then 4 mg/kg/week, status A (active)): 1
EDSS (last) ([1]; patient six, RPMS, DD 12 yrs, EDSS pretx 6, 4 mg/kg/d × 3 days, then 4 mg/kg/week, status D (discontinued)): 6
EDSS (last) ([1]; patient sixteen, PPMS, DD 18 yrs, EDSS pretx 8.5, 4 mg/kg/d × 15 days, the 4 mg/kg/week, status D (discontinued)): 8.5
EDSS (last) ([1]; patient ten, RRMS, DD 15 yrs, EDSS pretx 3, 4 mg/kg/d × 16 days, 4 mg/kg/wk × 4, then 4 mg/kg/q o wk, status A (active)): 3
EDSS (last) [1, 5]: 3.5
Outcome [1, 5]: No benefit
EDSS (last) ([1]; patient thirty, SPMS, DD 17 yrs, EDSS pretx 6, 4 mg/kg/d × 10 days, status D (discontinued)): 6
EDSS (last) ([1]; patient three, RPMS, DD 18 yrs, EDSS pretx 6.5, 4 mg/kg/d × 5 days, status D (discontinued)): 6.5
EDSS (last) ([1]; patient twelve, SPMS, DD 9 yrs, EDSS pretx 4, 4 mg/kg × 21 days, status D (discontinued)): 4
EDSS (last) ([1]; patient twenty, SPMS, DD 16 yrs, EDSS pretx 6.5, 4 mg/kg/day × 21 days, then 4 mg/kg q 2 weeks, status A (active)): 6.5
EDSS (last) ([1]; patient twenty-eight, SPMS, DD 15 yrs, EDSS pretx 6.5, 4 mg/kg/d × 10 days, then 4 mg/kg/wk, status A (active)): 6
EDSS (last) ([1]; patient twenty-five, SPMS, DD 6 yrs, EDSS pretx 6.5, 4 mg/kg/d × 5 days, status D (discontinued)): 7
EDSS (last) ([1]; patient twenty-four, SPMS, DD 15 yrs, EDSS pretx 6.5, 4 mg/kg/d × 10 days, then 4 mg/kg/wk, status A (active)): 6.5
EDSS (last) ([1]; patient twenty-nine, SPMS, DD 16 yrs, EDSS pretx 6.5, 4 mg/kg × 21 days, then 4 mg/kg q 2 wks, status A (active)): 6.5
EDSS (last) ([1]; patient twenty-one, SPMS, DD 11 yrs, EDSS pretx 5.5, 4 mg/kg/day × 21 days, 4 mg/kg q wk. 6 mg/kg/d times 14 days, status D (discontinued)): 6
EDSS (last) ([1]; patient twenty-seven, SPMS, DD 10 yrs, EDSS pretx 6, 4 mg/kg/d × 5 days, 2 mg/kg q 2 wks, status A (active)): 6
EDSS (last) ([1]; patient twenty-six, TMS, DD 23 yrs, EDSS pretx 4, 4 mg/kg/d × 14 days, status D (discontinued)): 4
EDSS (last) ([1]; patient twenty-three, RRMS, DD 11 yrs, EDSS pretx 2, 4 mg/kg × 5 days (relapse). Repeated 3 mos later (relapse), status D (discontinued)): 2.5
EDSS (last) ([1]; patient twenty-two, SPMS, DD 6 yrs, EDSS pretx 6.5, 4 mg/k/d × 5 days, status D (discontinued)): 6.5
EDSS (last) ([1]; patient two, SPMS, DD 11 yrs, EDSS pretx 6, 500 mg IV × 5 weeks, 4 mg/kg × 4 wks, 4 mg/kg q wk, status A (active)): 2.5
patients showing clinically significant improvement in symptoms of multiple sclerosis ([1]; patients with progressive and relapsing MS unresponsive to multiple therapies): 47%
subgroup response ([1]; primary progressive MS (PPMS)): 0%
subgroup response (responders/treated) ([1]; primary progressive MS (PPMS)): 0/1
subgroup response ([1]; relapsing remitting MS (RRMS)): 50%
subgroup response (responders/treated) ([1]; relapsing remitting MS (RRMS)): 3/6
subgroup response [1, 6]: 47%
subgroup response (responders/treated) [1, 6]: 9/19
patient-reported strength ([1]; thirteen patients with chronic progressive multiple sclerosis, 4 mg/kg IV): Nine patients reported better strength
patients who responded to treatment ([1]; total of 30 patients): 47%
patients who responded to treatment (number) ([1]; total of 30 patients): 14
subgroup response ([1]; transitional MS (TMS)): 100%
subgroup response (responders/treated) ([1]; transitional MS (TMS)): 2/2
left upper extremity strength, sensation, numbness ([2]; Patient A): numbness in their left arm was improved
walking ([2]; Patient A, after the first daptomycin treatment (100 mg for four weeks)): slight improvement in walking
gait / need of cane ([2]; Patient A, after the second treatment (500 mg daily about four weeks)): did not require their cane, but could walk unassisted
progressive neurological disability ([2]; Patient A, after treatment with daptomycin for MRSA skin infections): stabilized
walking ([2]; Patient A, during and after treatment): able to walk extended distances without their cane
EDSS (Expanded Disability Status Scale) ([2]; Patient A, four weeks after discontinuing daptomycin, EDSS was 6.0 before, 100 mg for four weeks, re-treatment 500 mg daily about four weeks): 2.5
muscle and nerve pain, muscle stiffness ([2]; Patient A): improvement in muscle pain and stiffness
muscle and nerve pain, muscle stiffness [2, 7]: significant decrease in their muscle and nerve pain as well as muscle stiffness
left upper extremity strength, sensation, numbness [2, 7]: increase in strength and sensation of their left upper extremity
functional improvement ([2]; person with SPMS poorly responsive to other therapies): dramatic and sustained functional improvement
ambulation ([3]; 4 mg/kg IV for five days, third day): able to walk with their walker
ambulation ([3]; 4 mg/kg IV, after five days): able to take a few steps without their walker
duration of stability after initial course ([3]; after initial 4 mg/kg IV for five days, then recurrence of ataxia and increased headaches, less severe): stable for approximately one week
response of relapses ([3]; consecutive courses of daptomycin for three to five days): respond very rapidly
frequency of relapses ([3]; daptomycin at regular intervals (4 mg/kg IV once a week with solumedrol 1 gram IV)): marked decrease in the frequency of their relapses
frequency of relapses and neurological disability ([3]; intravenous daptomycin 4 mg/kg): stabilized both in terms of the frequency of their relapses and neurological disability
